Assay results as given in publication PMC2572143, “Androgen Receptor Functional Analyses by High Throughput Imaging: Determination of Ligand, Cell Cycle, and Mutation-Specific Effects” (PLoS ONE, 2008).
Substitutions are numbered along the chain they refer to. Read-outs that look alike come from different tables or passages of the source.

Key:
[1] = target: T1, GFP-AR T877A (LNCaP mutation) (Homo sapiens, UniProt P10275, T878A); assay: HT imaging multiplex assay, all measurements together, HeLa GFP-AR T877A; type: cell-based
T1 construct: expressed in transfected cells
T1 sequence (P10275 1-920 T878A): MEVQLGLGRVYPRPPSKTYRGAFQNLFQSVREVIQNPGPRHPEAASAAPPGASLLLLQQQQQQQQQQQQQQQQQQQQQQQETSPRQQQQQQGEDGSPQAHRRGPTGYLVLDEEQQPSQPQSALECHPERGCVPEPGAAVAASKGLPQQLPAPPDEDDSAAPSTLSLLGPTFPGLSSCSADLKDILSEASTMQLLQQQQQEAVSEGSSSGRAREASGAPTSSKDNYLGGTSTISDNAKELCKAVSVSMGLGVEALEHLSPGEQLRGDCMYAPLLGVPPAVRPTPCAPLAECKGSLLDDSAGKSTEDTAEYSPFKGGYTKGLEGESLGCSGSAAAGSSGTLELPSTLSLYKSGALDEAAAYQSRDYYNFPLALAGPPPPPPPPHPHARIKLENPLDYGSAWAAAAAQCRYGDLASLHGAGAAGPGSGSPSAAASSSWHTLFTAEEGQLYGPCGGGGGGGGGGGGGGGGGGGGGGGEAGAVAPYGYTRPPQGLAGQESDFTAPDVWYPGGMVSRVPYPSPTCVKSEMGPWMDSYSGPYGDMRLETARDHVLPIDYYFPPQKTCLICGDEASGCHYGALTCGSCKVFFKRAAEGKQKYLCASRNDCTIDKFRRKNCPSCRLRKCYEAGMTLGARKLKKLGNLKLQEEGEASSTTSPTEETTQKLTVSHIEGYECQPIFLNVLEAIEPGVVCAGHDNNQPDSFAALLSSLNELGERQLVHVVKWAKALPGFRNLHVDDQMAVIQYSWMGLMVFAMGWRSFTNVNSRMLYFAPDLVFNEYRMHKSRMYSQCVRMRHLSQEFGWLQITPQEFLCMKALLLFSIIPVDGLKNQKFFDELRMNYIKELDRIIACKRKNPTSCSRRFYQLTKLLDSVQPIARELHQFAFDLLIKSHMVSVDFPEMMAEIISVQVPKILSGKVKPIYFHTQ

HeLa GFP-AR cells = assay: Cell cycle analysis by DNA content (DAPI)/EdU incorporation in unsynchronized cells; type: cell-based, human; details: for EC50: Homo sapiens, HeLa, 18 h
Description: To perform these studies, we simplified the HCS cell cycle analysis techniques described by Gesparri et al. to a DNA content (DAPI)/EdU incorporation biparametric analysis to identify G1, S phase, and G2 cells in unsynchronized growing cells (Fig. 6A). Cells were prepared as normal except with a brief 30 minute exposure to 10 µM EdU, which will incorporate into newly synthesized DNA similar to BrdU, prior to fixation. During image analysis, total nuclear DAPI signal (DNA) and mean nuclear EdU signal from each cell was quantified and used to determine cell cycle.
For experiments in which cell cycle effects were determined, cells were labeled using an Invitrogen Click-iT cell cycle analysis kit using supplied protocols. Prior to fixation, cells were exposed to 10 µM EdU for 30 minutes. Cells with EdU incorporation were labeled by an EdU specific antibody conjugated to an A647 florescent marker. Because the Click-iT labeling decreases GFP signal intensity, AR was labeled using an Anti-AR antibody (Dr. Nancy Weigel) and A488 secondary antibody (Molecular Probes).

[2] = target: T2, GFP-AR (wild type androgen receptor) (Homo sapiens, UniProt P10275); assay: HT imaging: pARR2PB-dsRED2skl transcriptional reporter gene activity (CORR2) in stable HeLa GFP-AR cells; type: cell-based; design: expressed in transfected cells
T2 sequence (P10275 1-920): T1 sequence (P10275 1-920 T878A) with A878T
Description: Cells were imaged in PBS.

[3] = target: T2, GFP-AR (wild type androgen receptor); assay: HT imaging: AR nuclear hyperspeckling (NVAR) in stable HeLa GFP-AR cells
Description: (§1) In general, 49 images were captured per well for image analysis.

[4] = target: T3, GFP-AR F764L (AIS mutation) (Homo sapiens, UniProt P10275, F765L); assay: HT imaging multiplex assay, all three parameters together, HeLa GFP-AR F764L; type: cell-based; details: read-out: maximal responses (three parameters), % of that observed with WT AR
T3 construct: expressed in transfected cells
T3 sequence (P10275 1-920 F765L): T1 sequence (P10275 1-920 T878A) with F765L, A878T

[5] = target: T2, GFP-AR (wild type androgen receptor); assay: HT imaging multiplex assay, all three parameters together (FLIN, NVAR, CORR2), HeLa GFP-AR
Description: as §1

[6] = target: T2, GFP-AR (wild type androgen receptor); assay: HT imaging: AR nuclear translocation (FLIN) in stable HeLa GFP-AR cells
Description: as §1

`CC(C)(O)C(=O)Nc1ccc([N+](=O)[O-])c(C(F)(F)F)c1` [OHF, o-hydroxyflutamide] was tested, and the “concentration at which agonist effect / activation of the T877A mutant is observed” value ([1]; compound alone) was 75 to 85 nM, the “effect on the cell cycle (in words)” value (HeLa GFP-AR cells; 18 hr treatment) was “did not have any appreciable effect on the cell cycle” and the “induction of transcriptional reporter gene activity (in words)” value ([2]; compound alone) was “no significant hyperspeckling or induction of transcription”. The “induction of nuclear hyperspeckling (in words)” value ([3]; compound alone) was “no significant hyperspeckling”.

With `C[C@@H]1CC2=CC(=O)CC[C@@H]2[C@H]2CC[C@@]3(C)[C@@H](CC[C@]3(C)O)[C@@H]21` [Mibolerone, mibolerone] the “difference of results from those observed with WT-AR” value ([1]; compound alone) was at most 1% and the Emax [4] was 85 to 105%.

`CC(C)(C)CC(C)(C)c1ccc(O)cc1` [Octophenol] was tested, and the “response on any of the three parameters measured (in words)” value ([5]; compound alone) was “did not yield a significant response” and the “response on any of the three parameters / AR antagonistic activity (in words)” value ([5]; with 10 nM R1881 (competition)) was “did not yield a significant response”.

With `C[C@]1(O)CC[C@H]2[C@@H]3CCC4=CC(=O)CCC4=C3C=C[C@@]21C` [R1881, Methyltrienolone] the “difference of results from those observed with WT-AR” value [1] was at most 1%, the Emax [4] was 40 to 60% and the “S % (I + II)” value (HeLa GFP-AR cells; 100 nM, untreated control 42.6) was 0.7%. For the same molecule, the EC50 (HeLa GFP-AR cells; read-out: EC50 of G1/S block) was 0.1 ± 0.03 nM, the EC50 (HeLa GFP-AR cells; read-out: EC50 of reduction in S-phase cells) was 0.07 ± 0.02 nM and the “cells with a majority of the GFP signal in the nucleus” value [6] was 95–97%. For the same molecule, the “more AR in the nucleus in G2 cells compared to G1 cells” value [6] was 8–12%, the “time AR distribution remained nuclear after ligand pulse” value [6] was “up to 15 hr” and the “concentration at which saturation of response is observed” value ([5]; FLIN, NVAR, CORR2, titration 10−6 M to 10−11 M) was “≈ 100 nM”.

With `CC(C)=CC(=O)O[C@H]1Cc2cc3ccc(=O)oc3cc2OC1(C)C` [Decursin] the IC50 [2] was 10.6 ± 0.865 µM, the “decrease in transcriptional reporter gene activity (dsRED2skl reporter signal)” value ([2]; with 10 nM R1881) was 45% and the EC50 [6] was 0.853 ± 0.0884 µM. For the same molecule, the IC50 [6] was 13.2 ± 0.152 µM, the “decrease in R1881-induced nuclear translocation” value ([6]; with 10 nM R1881) was 95% and the IC50 [3] was 12.3 ± 0.43 µM. For the same molecule, the “reduction/loss of agonist-induced hyperspeckling (NVAR)” value ([3]; with 10 nM R1881) was 94%.
